According to patent US12110279B2, “Triazolones, tetrazolones, and imidazolones, or their salts, and pharmaceutical compositions comprising the same” (Yuhan Corporation, priority 2021, dated 2024):
Structures can show the parent of a compound that is named as a salt.

Legend:
Type in all cases: biochemical
[1] = target: T1, recombinant human DAO (diamine oxidase) (Homo sapiens, UniProt P19801); assay: Amplex Red HRP-coupled amine oxidase activity evaluation, recombinant human DAO; conditions: substrate 1 mM putrescine; read-out: Inhibitory Activity (IC50, nM) DAO
T1 construct: purchased R&D systems
T1 sequence (P19801 20-751): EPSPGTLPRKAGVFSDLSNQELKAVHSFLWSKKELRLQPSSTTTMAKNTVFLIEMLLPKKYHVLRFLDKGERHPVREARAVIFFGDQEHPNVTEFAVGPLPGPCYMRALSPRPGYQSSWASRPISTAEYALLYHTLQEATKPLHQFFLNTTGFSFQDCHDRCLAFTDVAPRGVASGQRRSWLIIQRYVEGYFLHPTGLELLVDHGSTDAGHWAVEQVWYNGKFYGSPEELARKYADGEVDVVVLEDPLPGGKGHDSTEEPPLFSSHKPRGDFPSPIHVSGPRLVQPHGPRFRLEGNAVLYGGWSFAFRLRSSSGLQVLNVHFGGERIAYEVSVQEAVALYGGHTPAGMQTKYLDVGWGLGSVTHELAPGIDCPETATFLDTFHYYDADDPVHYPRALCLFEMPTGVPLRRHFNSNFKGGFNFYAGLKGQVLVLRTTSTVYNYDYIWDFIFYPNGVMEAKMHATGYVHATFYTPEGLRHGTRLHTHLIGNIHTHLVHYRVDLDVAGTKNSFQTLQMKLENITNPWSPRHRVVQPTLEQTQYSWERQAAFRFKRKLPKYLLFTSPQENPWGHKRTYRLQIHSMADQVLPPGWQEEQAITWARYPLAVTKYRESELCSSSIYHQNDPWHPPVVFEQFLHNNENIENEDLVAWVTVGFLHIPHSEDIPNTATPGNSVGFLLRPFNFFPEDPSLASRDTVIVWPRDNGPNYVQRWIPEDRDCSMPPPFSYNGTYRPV
Experimental: [The source words this procedure for another target and says it was used here with some conditions changed.] (§1) The compounds according to the present technology were evaluated in terms of activity on recombinant human VAP-1 (R&D systems) by measuring the level of hydrogen peroxide in horseradish peroxidase (HRP)-coupled reaction using Amplex Red Hydrogen Peroxide Assay Kit (Molecular Probes, Invitrogen, USA). The experiment was carried out at room temperature using benzylamine as a substrate. In the HRP-coupled reaction, hydrogen peroxide oxidation of 10-acetyl-3,7-dihydroxyphenoxazine (Amplex Red reagent) produces resorufin, which is a highly fluorescent compound. Briefly, the test compound was dissolved in dimethyl sulfoxide (DMSO) at a concentration of 20 mM. The dose-response assessment was made by 1:3 serial dilution in DMSO, thereby creating an 8-point curve. The concentration of the upper part was controlled according to the efficacy of the compounds, followed by dilution with a reaction buffer solution to obtain a final DMSO concentration of less than 1%. To each well of a 96 black well plate, human VAP-1 purified in 50 mM sodium phosphate buffer solution (pH7.4) was added. The test compounds dissolved in DMSO were incubated with the human VAP-1 enzymes at 37° C. for 30 minutes. After 30-minute incubation, each well was added with a reaction mixture containing 200 uM Amplex Red reagent prepared from 50 mM sodium phosphate buffer solution (pH 7.4), 1 mM benzylamine, and 1 U/mL HRP. Fluorescence intensity was measured at several time points during 1-2 hours using a microplate reader (Flexstation3, Molecular Devices) under the wavelength condition exciting at 544 nm and reading the emission at 590 nm. The inhibitory effect of the compounds was measured as a decrease (%) in the signal rate as compared to the control group without any inhibitor (only diluted DMSO). Data was fixed to a logistic model with four variables and IC50 value was calculated using GraphPad Prism program.

[2] = target: T2, recombinant human MAO-B (monoamine oxidase-B) (Homo sapiens, UniProt P27338); assay: Amplex Red HRP-coupled amine oxidase activity evaluation, recombinant human MAO-B; conditions: substrate 1 mM benzylamine; read-out: Inhibitory Activity (IC50, nM) MAO-B
T2 construct: purchased Sigma-Aldrich
T2 sequence (P27338 1-520): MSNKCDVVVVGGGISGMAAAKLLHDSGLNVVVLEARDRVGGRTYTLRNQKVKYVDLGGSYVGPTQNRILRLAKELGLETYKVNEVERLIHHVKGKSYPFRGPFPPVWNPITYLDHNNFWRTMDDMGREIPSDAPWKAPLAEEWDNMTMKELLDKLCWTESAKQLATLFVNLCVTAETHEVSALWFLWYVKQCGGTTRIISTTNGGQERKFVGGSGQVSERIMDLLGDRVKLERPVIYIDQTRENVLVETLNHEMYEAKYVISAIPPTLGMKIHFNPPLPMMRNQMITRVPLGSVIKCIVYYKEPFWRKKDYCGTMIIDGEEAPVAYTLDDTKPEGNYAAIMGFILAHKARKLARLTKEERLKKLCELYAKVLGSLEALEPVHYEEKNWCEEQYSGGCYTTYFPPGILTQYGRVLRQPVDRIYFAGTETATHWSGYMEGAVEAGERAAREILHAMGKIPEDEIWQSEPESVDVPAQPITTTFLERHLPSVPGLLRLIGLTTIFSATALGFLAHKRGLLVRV
Experimental: [The source words this procedure for another target and says it was used here with some conditions changed.] as §1

recombinant human VAP-1 = target: T3, recombinant human VAP-1 (Homo sapiens, UniProt Q16853); assay: Amplex Red HRP-coupled amine oxidase activity evaluation, recombinant human VAP-1; conditions: substrate 1 mM benzylamine; 30 min preincubation at 37° C.; read-out: Inhibitory Activity (IC50, nM) human VAP-1
T3 construct: purchased R&D systems
T3 sequence (Q16853 1-763): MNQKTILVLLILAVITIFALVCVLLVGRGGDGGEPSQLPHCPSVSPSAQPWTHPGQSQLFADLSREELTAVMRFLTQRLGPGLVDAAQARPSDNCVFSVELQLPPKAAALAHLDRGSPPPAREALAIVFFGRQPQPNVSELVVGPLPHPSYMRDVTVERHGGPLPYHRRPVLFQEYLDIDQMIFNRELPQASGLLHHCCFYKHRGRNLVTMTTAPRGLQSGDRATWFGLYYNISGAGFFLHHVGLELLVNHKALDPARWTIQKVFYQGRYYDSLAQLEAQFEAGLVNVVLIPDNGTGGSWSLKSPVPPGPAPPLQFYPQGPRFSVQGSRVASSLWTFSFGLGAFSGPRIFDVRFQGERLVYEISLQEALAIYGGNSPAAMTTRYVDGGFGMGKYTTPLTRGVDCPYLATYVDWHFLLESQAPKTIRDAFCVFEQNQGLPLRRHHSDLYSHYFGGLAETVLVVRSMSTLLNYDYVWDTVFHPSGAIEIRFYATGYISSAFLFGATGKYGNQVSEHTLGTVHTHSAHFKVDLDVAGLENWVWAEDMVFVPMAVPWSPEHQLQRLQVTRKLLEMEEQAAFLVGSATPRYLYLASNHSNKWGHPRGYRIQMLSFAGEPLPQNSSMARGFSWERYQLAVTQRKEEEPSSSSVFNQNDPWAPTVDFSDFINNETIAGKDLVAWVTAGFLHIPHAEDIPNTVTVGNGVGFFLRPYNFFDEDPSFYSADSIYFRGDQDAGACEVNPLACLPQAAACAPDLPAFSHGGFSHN
Experimental: as §1

[3] = target: T4, recombinant human MAO-A (monoamine oxidase-A) (Homo sapiens, UniProt P21397); assay: Amplex Red HRP-coupled amine oxidase activity evaluation, recombinant human MAO-A; conditions: substrate 0.5 mM tyramine; read-out: Inhibitory Activity (IC50, nM) MAO-A
T4 construct: purchased Sigma-Aldrich
T4 sequence (P21397 1-527): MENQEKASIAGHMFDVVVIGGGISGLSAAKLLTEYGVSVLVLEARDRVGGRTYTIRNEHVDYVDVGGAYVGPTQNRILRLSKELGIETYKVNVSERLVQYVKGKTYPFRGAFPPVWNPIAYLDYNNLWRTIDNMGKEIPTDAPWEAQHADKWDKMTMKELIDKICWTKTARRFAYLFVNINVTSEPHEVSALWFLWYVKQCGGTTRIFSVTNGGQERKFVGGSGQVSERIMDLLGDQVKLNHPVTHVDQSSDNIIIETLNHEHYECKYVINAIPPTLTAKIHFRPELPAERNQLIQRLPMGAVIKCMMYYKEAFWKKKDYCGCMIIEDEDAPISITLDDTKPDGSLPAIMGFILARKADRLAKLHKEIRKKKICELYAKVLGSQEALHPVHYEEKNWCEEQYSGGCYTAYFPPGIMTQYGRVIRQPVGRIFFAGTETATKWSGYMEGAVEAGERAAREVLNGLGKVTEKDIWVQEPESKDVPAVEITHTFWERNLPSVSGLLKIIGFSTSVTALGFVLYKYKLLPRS
Experimental: [The source words this procedure for another target and says it was used here with some conditions changed.] as §1

| Compound | IC50 [1] [nM] | IC50 [2] [nM] | IC50 (recombinant human VAP-1) [nM] | IC50 [3] [nM] |
| --- | --- | --- | --- | --- |
| Cc1cc(-c2csc(-n3nnn(CC(CN)=C(F)F)c3=O)c2)cc2c1NC(=O)CC2 [Example 40, 6-[5-[4-[2-(aminomethyl)-3,3-difluoro-allyl]-5-oxo-tetrazol-1-yl]-3-thienyl]-8-methyl-3,4-dihydro-1H-quinolin-2-one trifluoroacetate] | 1.6 | 123 | 0.4 | 56100 |
| CCn1cc(-c2ccc(Cn3nnn(CC(CN)=C(F)F)c3=O)s2)ccc1=O [Example 44, 5-[5-[[4-[2-(aminomethyl)-3,3-difluoro-allyl]-5-oxo-tetrazol-1-yl]methyl]-2-thienyl]-1-ethyl-pyridin-2-one trifluoroacatate] | 762 | 10000 | 0.3 | > 100000 |
| CCn1cc(-c2cccc(Cn3nnn(CC(CN)=C(F)F)c3=O)c2)ccc1=O [Example 34, 5-[3-[[4-[2-(aminomethyl)-3,3-difluoro-allyl]-5-oxo-tetrazol-1-yl]methyl]phenyl]-1-ethyl-pyridin-2-one trifluoroacetate] | 12500 | 53900 | 0.6 | > 100000 |
| CCn1cc(-c2cccc(Cn3nnn(CC(CN)=C(F)F)c3=O)c2)cn1 [Example 32, 1-[2-(aminomethyl)-3,3-difluoro-allyl]-4-[[3-(1-ethylpyrazol-4-yl)phenyl]methyl]tetrazol-5-one trifluoroacetate] | 811 | 2320 | 0.4 | > 100000 |
| CN1C(=O)CCc2cc(-c3ccc(Cn4ccn(CC(CN)=C(F)F)c4=O)s3)ccc21 [Example 51, 6-[5-[[3-[2-(aminomethyl)-3,3-difluoro-allyl]-2-oxo-imidazol-1-yl]methyl]-2-thienyl]-1-methyl-3,4-dihydroquinolin-2-one trifluoroacetate] | 206 | 63100 | 1.9 | > 100000 |
| NCC(Cn1nnn(-c2cc(-c3ccc(N4CCNCC4)cc3)cs2)c1=O)=C(F)F [Example 36, 1-[2-(aminomethyl)-3,3-difluoro-allyl]-4-[4-(4-piperazin-1-ylphenyl)-2-thienyl]tetrazol-5-one di-trifluoroacetate] | 8470 | > 100000 | 1.1 | > 100000 |
| CN1C(=O)CCc2cc(-c3ccc(-n4nnn(CC(CN)=C(F)F)c4=O)cc3)ccc21 [Example 21, 6-[4-[4-[2-(aminomethyl)-3,3-difluoro-allyl]-5-oxo-tetrazol-1-yl]phenyl]-1-methyl-3,4-dihydroquinolin-2-one trifluoroacetate] | 38 | 43 | 0.5 | > 100000 |
| CN1C(=O)CCc2cc(-c3csc(-n4nnn(CC(CN)=C(F)F)c4=O)c3)ccc21 [Example 41, 6-[5-[4-[2-(aminomethyl)-3,3-difluoro-allyl]-5-oxo-tetrazol-1-yl]-3-thienyl]-1-methyl-3,4-dihydroquinolin-2-one trifluoroacetate] | 52 | 34 | 0.4 | > 100000 |
| Cc1cc(-c2ccc(Cn3c(C)nn(CC(CN)=C(F)F)c3=O)s2)cc2c1NC(=O)CC2 [Example 7, 6-[5-[[1-[2-(aminomethyl)-3,3-difluoro-allyl]-3-methyl-5-oxo-1,2,4-triazol-4-yl]methyl]-2-thienyl]-8-methyl-3,4-dihydro-1H-quinolin-2-one trifluoroacetate] | > 100000 | > 100000 | 1 | > 100000 |
| Cc1nn(CC(CN)=C(F)F)c(=O)n1Cc1ccc(-c2ccc(N3CCNCC3)cc2)s1 [Example 3, 2-[2-(aminomethyl)-3,3-difluoro-allyl]-5-methyl-4-[[5-(4-piperazin-1-ylphenyl)-2-thienyl]methyl]-1,2,4-triazol-3-one di-trifluoroacetate] | > 100000 | > 100000 | 18 | > 100000 |
| CS(=O)(=O)c1ccc(-c2cccc(Cn3nnn(CC(CN)=C(F)F)c3=O)c2)cc1 [Example 27, 1-[2-(aminomethyl)-3,3-difluoro-allyl]-4-[[3-(4-methylsulfonylphenyl)phenyl]methyl]tetrazol-5-one trifluoroacetate] | 513 | 48400 | 1 | > 100000 |
| Cc1nn(CC(CN)=C(F)F)c(=O)n1Cc1ccc(-c2ccc(N(C)C)nc2)s1 [Example 5, 2-[2-(aminomethyl)-3,3-difluoro-allyl]-4-[[5-[6-(dimethylamino)-3-pyridyl]-2-thienyl]methyl]-5-methyl-1,2,4-triazol-3-one trifluoroacetate] | > 100000 | > 100000 | 2 | > 100000 |
